Experimental data as given in ChEMBL document CHEMBL4411307, “N,N'-diaryl-bishydrazones in a biphenyl platform: Broad spectrum antifungal agents” (Eur J Med Chem, 2019).
≈ marks a conversion by molar mass, not a printed value. Calls of active or inactive are those of the source. No cut-off for these calls is given here.

Legend:
[1] = Selectivity index, ratio of compound concentration showing <20 to <30% hemolysis in mouse RBC to MIC for Candida krusei ATCC 6258; format: toxicity; conditions: mouse red blood cells (RBC), read-out: Selectivity Index
[2] = Selectivity index, ratio of CC50 for human A549 cells to MIC for Candida parapsilosis ATCC 22019; format: toxicity; conditions: read-out: Selectivity Index
[3] = Selectivity index, ratio of CC50 for human A549 cells to MIC for Aspergillus flavus ATCC MYA-3631; format: toxicity; conditions: read-out: Selectivity Index
[4] = Hemolytic activity in mouse RBC at 1.95 ug/ml after 1 hr relative to control; format: ADME, cell-based, Erythrocyte; conditions: red blood cells (erythrocytes), read-out: Activity
Candida albicans [5] = assay: Antifungal activity against fluconazole/ITC-resistant Candida albicans ATCC 90819 measured after 48 hrs by CLSI M27-A3 protocol based method; format: functional; conditions: ATCC 90819, 48 h
BEAS-2B = assay: Cytotoxicity against human BEAS2B cells after 24 hrs by resazurin based assay; format: cell-based
[6] = Hemolytic activity in mouse RBC at 7.8 ug/ml after 1 hr relative to control; format: ADME, cell-based, Erythrocyte; conditions: red blood cells (erythrocytes), read-out: Activity
[7] = Selectivity index, ratio of compound concentration showing <20 to <30% hemolysis in mouse RBC to MIC for fluconazole/ITC-resistant Candida albicans ATCC 90819; format: toxicity; conditions: red blood cells (erythrocytes), read-out: Selectivity Index
[8] = Hemolytic activity in mouse RBC at […] after 1 hr relative to control; format: ADME, cell-based, Erythrocyte; conditions: red blood cells (erythrocytes), read-out: Activity; note: tested at 0.48 µg/mL
[9] = Selectivity index, ratio of compound concentration showing <20 to <30% hemolysis in mouse RBC to MIC for fluconazole/ITC-resistant Candida albicans ATCC MYA-1003; format: toxicity; conditions: mouse red blood cells (RBC), read-out: Selectivity Index
[10] = Selectivity index, ratio of compound concentration showing <20 to <30% hemolysis in mouse RBC to MIC for fluconazole/ITC-resistant Candida albicans ATCC 10231; format: toxicity; conditions: red blood cells (erythrocytes), read-out: Selectivity Index
Candida albicans [11] = assay: Antifungal activity against fluconazole/ITC-resistant Candida albicans ATCC MYA-1237 measured after 48 hrs by CLSI M27-A3 protocol based method; format: functional; conditions: ATCC MYA-1237, 48 h
[12] = Selectivity index, ratio of CC50 for human A549 cells to MIC for fluconazole/ITC-resistant Candida albicans ATCC 10231; format: toxicity; conditions: read-out: Selectivity Index
[13] = Selectivity index, ratio of compound concentration showing <20 to <30% hemolysis in mouse RBC to MIC for Candida glabrata ATCC 2001; format: toxicity; conditions: mouse red blood cells (RBC), read-out: Selectivity Index
[14] = Selectivity index, ratio of compound concentration showing <20 to <30% hemolysis in mouse RBC to MIC for fluconazole/ITC-resistant Candida albicans ATCC MYA-1237; format: toxicity; conditions: mouse red blood cells (RBC), read-out: Selectivity Index
Candida albicans [15] = assay: Antifungal activity against fluconazole/ITC-resistant Candida albicans ATCC 64124 measured after 48 hrs by CLSI M27-A3 protocol based method; format: functional; conditions: ATCC 64124, 48 h
Aspergillus flavus = assay: Antifungal activity against Aspergillus flavus ATCC MYA-3631 measured after 48 hrs by CLSI M38-A2 protocol based method; format: functional; conditions: ATCC MYA-3631, 48 h
[16] = Hemolytic activity in mouse RBC at […] ug/ml after 1 hr relative to control; format: ADME, cell-based, Erythrocyte; conditions: red blood cells (erythrocytes), read-out: Activity
Candida albicans [17] = assay: Antifungal activity against fluconazole/ITC-susceptible Candida albicans ATCC MYA-2876 measured after 48 hrs by CLSI M27-A3 protocol based method; format: functional; conditions: ATCC MYA-2876, 48 h
[18] = Hemolytic activity in mouse RBC at 31.3 ug/ml after 1 hr relative to control; format: ADME, cell-based, Erythrocyte; conditions: red blood cells (erythrocytes), read-out: Activity
[19] = Selectivity index, ratio of compound concentration showing <20 to <30% hemolysis in mouse RBC to MIC for fluconazole/ITC-susceptible Candida albicans ATCC MYA-2876; format: toxicity; conditions: red blood cells (erythrocytes), read-out: Selectivity Index
[20] = Selectivity index, ratio of compound concentration showing <20 to <30% hemolysis in mouse RBC to MIC for Aspergillus nidulans ATCC 38163; format: toxicity; conditions: mouse red blood cells (RBC), read-out: Selectivity Index
Candida albicans [21] = assay: Antifungal activity against fluconazole/ITC-resistant Candida albicans ATCC 10231 measured after 48 hrs by CLSI M27-A3 protocol based method; format: functional; conditions: ATCC 10231, 48 h
[22] = Selectivity index, ratio of compound concentration showing <20 to <30% hemolysis in mouse RBC to MIC for fluconazole/ITC-susceptible Candida albicans ATCC MYA-2310; format: toxicity; conditions: mouse red blood cells (RBC), read-out: Selectivity Index
[23] = Selectivity index, ratio of CC50 for human A549 cells to MIC for fluconazole/ITC-resistant Candida albicans ATCC MYA-1003; format: toxicity; conditions: read-out: Selectivity Index
[24] = Selectivity index, ratio of CC50 for human A549 cells to MIC for fluconazole/ITC-susceptible Candida albicans ATCC MYA-2310; format: toxicity; conditions: read-out: Selectivity Index
[25] = biological target: Voltage-gated inwardly rectifying potassium channel KCNH2 (Homo sapiens, UniProt Q12809); assay: Inhibition of [3H]-dofetilide binding to human ERG expressed in HEK293 cell membranes measured after 1 hr by liquid scintillation counting method
[26] = Selectivity index, ratio of CC50 for human A549 cells to MIC for fluconazole/ITC-susceptible Candida albicans ATCC MYA-2876; format: toxicity; conditions: read-out: Selectivity Index
[27] = Selectivity index, ratio of compound concentration showing <20 to <30% hemolysis in mouse RBC to MIC for Aspergillus terreus ATCC MYA-3633; format: toxicity; conditions: mouse red blood cells (RBC), read-out: Selectivity Index
Pichia kudriavzevii = assay: Antifungal activity against Candida krusei ATCC 6258 measured after 48 hrs by CLSI M27-A3 protocol based method; format: functional; conditions: ATCC 6258, 48 h
[28] = Hemolytic activity in mouse RBC at 62.5 ug/ml after 1 hr relative to control; format: ADME, cell-based, Erythrocyte; conditions: red blood cells (erythrocytes), read-out: Activity
[29] = Selectivity index, ratio of CC50 for human A549 cells to MIC for fluconazole/ITC-resistant Candida albicans ATCC 64124; format: toxicity; conditions: read-out: Selectivity Index
A549 = assay: Cytotoxicity against human A549 cells after 24 hrs by resazurin based assay; format: cell-based; conditions: a549, 24 h
[30] = Selectivity index, ratio of CC50 for human A549 cells to MIC for fluconazole/ITC-resistant Candida albicans ATCC MYA-1237; format: toxicity; conditions: read-out: Selectivity Index
Aspergillus nidulans = assay: Antifungal activity against Aspergillus nidulans ATCC 38163 measured after 48 hrs by CLSI M38-A2 protocol based method; format: functional; conditions: ATCC 38163, 48 h
Enterococcus = assay: Antibacterial activity against vancomycin-resistant Enterococcus; format: functional, organism-based
Staphylococcus aureus = assay: Antibacterial activity against methicillin-resistant Staphylococcus aureus; format: functional, organism-based
[31] = Selectivity index, ratio of CC50 for human A549 cells to MIC for Aspergillus terreus ATCC MYA-3633; format: toxicity; conditions: read-out: Selectivity Index
[32] = Selectivity index, ratio of CC50 for human A549 cells to MIC for fluconazole/ITC-resistant Candida albicans ATCC 90819; format: toxicity; conditions: read-out: Selectivity Index
[33] = Selectivity index, ratio of CC50 for human A549 cells to MIC for Candida krusei ATCC 6258; format: toxicity; conditions: read-out: Selectivity Index
Candida parapsilosis = assay: Antifungal activity against Candida parapsilosis ATCC 22019 measured after 48 hrs by CLSI M27-A3 protocol based method; format: functional; conditions: Lodderomyces parapsilosis, ATCC 22019, 48 h
Listeria monocytogenes = assay: Antibacterial activity against Listeria monocytogenes; format: functional, organism-based
[34] = Selectivity index, ratio of CC50 for human A549 cells to MIC for Aspergillus nidulans ATCC 38163; format: toxicity; conditions: read-out: Selectivity Index
[35] = Hemolytic activity in mouse RBC at 3.9 ug/ml after 1 hr relative to control; format: ADME, cell-based, Erythrocyte; conditions: red blood cells (erythrocytes), read-out: Activity
[36] = Selectivity index, ratio of compound concentration showing <20 to <30% hemolysis in mouse RBC to MIC for fluconazole/ITC-resistant Candida albicans ATCC 64124; format: toxicity; conditions: red blood cells (erythrocytes), read-out: Selectivity Index
[37] = Selectivity index, ratio of CC50 for human A549 cells to MIC for Candida glabrata ATCC 2001; format: toxicity; conditions: read-out: Selectivity Index
Aspergillus terreus = assay: Antifungal activity against Aspergillus terreus ATCC MYA-3633 measured after 48 hrs by CLSI M38-A2 protocol based method; format: functional; conditions: ATCC MYA-3633, 48 h
[38] = Selectivity index, ratio of compound concentration showing <20 to <30% hemolysis in mouse RBC to MIC for Aspergillus flavus ATCC MYA-3631; format: toxicity; conditions: mouse red blood cells (RBC), read-out: Selectivity Index
[39] = Selectivity index, ratio of compound concentration showing <20 to <30% hemolysis in mouse RBC to MIC for Candida parapsilosis ATCC 22019; format: toxicity; conditions: mouse red blood cells (RBC), read-out: Selectivity Index

Voltage-gated inwardly rectifying potassium channel KCNH2, sequence (Q12809 whole entry): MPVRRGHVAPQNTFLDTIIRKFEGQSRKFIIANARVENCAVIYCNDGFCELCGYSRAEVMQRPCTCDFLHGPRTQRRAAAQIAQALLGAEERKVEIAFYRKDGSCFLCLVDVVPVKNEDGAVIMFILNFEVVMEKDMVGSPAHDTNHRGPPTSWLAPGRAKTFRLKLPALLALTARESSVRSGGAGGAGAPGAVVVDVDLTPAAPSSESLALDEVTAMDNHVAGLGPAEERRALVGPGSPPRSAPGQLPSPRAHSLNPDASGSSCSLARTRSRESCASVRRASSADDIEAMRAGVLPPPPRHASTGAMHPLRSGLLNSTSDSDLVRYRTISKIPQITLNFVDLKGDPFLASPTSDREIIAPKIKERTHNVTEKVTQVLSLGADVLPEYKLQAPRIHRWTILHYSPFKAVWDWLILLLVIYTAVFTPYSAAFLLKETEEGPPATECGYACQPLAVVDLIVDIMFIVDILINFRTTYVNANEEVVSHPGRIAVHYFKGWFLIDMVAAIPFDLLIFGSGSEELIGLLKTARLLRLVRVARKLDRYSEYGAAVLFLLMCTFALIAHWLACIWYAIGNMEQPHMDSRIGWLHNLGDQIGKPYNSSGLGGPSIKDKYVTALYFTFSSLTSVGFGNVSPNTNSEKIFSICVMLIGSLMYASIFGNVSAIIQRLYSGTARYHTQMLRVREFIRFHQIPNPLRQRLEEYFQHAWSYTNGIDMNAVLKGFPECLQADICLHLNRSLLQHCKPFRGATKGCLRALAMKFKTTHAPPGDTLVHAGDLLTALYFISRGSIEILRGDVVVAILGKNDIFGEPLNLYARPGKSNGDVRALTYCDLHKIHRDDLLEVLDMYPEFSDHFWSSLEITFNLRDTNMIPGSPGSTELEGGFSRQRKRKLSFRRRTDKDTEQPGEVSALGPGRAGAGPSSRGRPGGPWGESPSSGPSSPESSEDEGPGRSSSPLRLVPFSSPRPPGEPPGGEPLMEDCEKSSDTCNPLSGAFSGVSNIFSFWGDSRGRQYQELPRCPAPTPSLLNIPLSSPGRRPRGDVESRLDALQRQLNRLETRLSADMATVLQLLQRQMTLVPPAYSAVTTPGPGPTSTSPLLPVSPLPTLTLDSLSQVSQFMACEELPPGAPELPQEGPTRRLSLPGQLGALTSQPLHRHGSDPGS

Q: For `COc1ccc(N/N=C/c2ccc(-c3cccc(/C=N/Nc4ccc(OC)cc4)c3)cc2)cc1`, which selectivity ratio [1] is on record?
A: 1 to 32

Q: What about the selectivity ratio [2] of the same compound?
A: 0.6

Q: What about the selectivity ratio [3] of the same compound?
A: 0.6

Q: What about the hemolysis at 1 h, 1.95 ug/ml [4] of the same compound?
A: 4.5%

Q: What about the MIC (Candida albicans [5]) of the same compound?
A: 3.9 µg/mL (≈ 8.66 µM)

Q: What about the CC50 (BEAS-2B) of the same compound?
A: 14.1 µg/mL (≈ 31.3 µM)

Q: And the hemolysis at 1 h, 7.8 ug/ml [6]?
A: 2.6%

Q: What about the selectivity ratio [7] of the same compound?
A: 1 to 32

Q: What about the hemolysis at 1 h, […] [8] of the same compound?
A: 0%

Q: What about the selectivity ratio [9] of the same compound?
A: 1 to 32

Q: And the selectivity ratio [10]?
A: 1 to 32

Q: What about the MIC (Candida albicans [11]) of the same compound?
A: 3.9 µg/mL (≈ 8.66 µM)

Q: And the selectivity ratio [12]?
A: 9.3

Q: What about the selectivity ratio [13] of the same compound?
A: 1 to 32

Q: What about the selectivity ratio [14] of the same compound?
A: 1 to 32

Q: And the MIC (Candida albicans [15])?
A: 15.6 µg/mL (≈ 34.6 µM)

Q: And the MIC (Aspergillus flavus)?
A: > 31.3 µg/mL

Q: What about the hemolysis at 1 h, 15.6 ug/ml ([16]; at 15.6 µg/mL) of the same compound?
A: 7.8%

Q: What about the hemolysis at 1 h, 0.975 ug/ml [16] of the same compound?
A: 2.6%

Q: And the MIC (Candida albicans [17])?
A: 3.9 µg/mL (≈ 8.66 µM)

Q: What about the hemolysis at 1 h, 31.3 ug/ml [18] of the same compound?
A: 9.6%

Q: And the selectivity ratio [19]?
A: 1 to 32

Q: What about the selectivity ratio [20] of the same compound?
A: 1 to 32

Q: What about the MIC (Candida albicans [21]) of the same compound?
A: 1.95 µg/mL (≈ 4.33 µM)

Q: What about the selectivity ratio [22] of the same compound?
A: 1 to 32

Q: What about the selectivity ratio [23] of the same compound?
A: 2.3

Q: What about the selectivity ratio [24] of the same compound?
A: 2.3

Q: What about the IC50 [25] of the same compound?
A: > 30 µM

Q: What about the selectivity ratio [26] of the same compound?
A: 4.7

Q: And the selectivity ratio [27]?
A: 1 to 32

Q: And the MIC (Pichia kudriavzevii)?
A: 3.9 µg/mL (≈ 8.66 µM)

Q: What about the hemolysis at 1 h, 62.5 ug/ml [28] of the same compound?
A: 18.8%

Q: And the selectivity ratio [29]?
A: 1.2

Q: And the CC50 (A549)?
A: 18.2 µg/mL (≈ 40.4 µM)

Q: What about the selectivity ratio [30] of the same compound?
A: 4.7

Q: What about the MIC (Aspergillus nidulans) of the same compound?
A: 31.3 µg/mL (≈ 69.5 µM)

Q: And the Activity (Enterococcus)?
A: inactive

Q: And the Activity (Staphylococcus aureus)?
A: inactive

Q: What about the selectivity ratio [31] of the same compound?
A: 0.6

Q: What about the selectivity ratio [32] of the same compound?
A: 4.7

Q: What about the selectivity ratio [33] of the same compound?
A: 4.7

Q: What about the MIC (Candida parapsilosis) of the same compound?
A: > 31.3 µg/mL

Q: And the Activity (Listeria monocytogenes)?
A: inactive

Q: What about the selectivity ratio [34] of the same compound?
A: 0.6

Q: And the hemolysis at 1 h, 3.9 ug/ml [35]?
A: 3%

Q: What about the selectivity ratio [36] of the same compound?
A: 1 to 32

Q: And the selectivity ratio [37]?
A: 2.3

Q: And the MIC (Aspergillus terreus)?
A: > 31.3 µg/mL

Q: And the selectivity ratio [38]?
A: 1 to 32

Q: What about the selectivity ratio [39] of the same compound?
A: 1 to 32
